Measurements from ChEMBL document CHEMBL1123438, “Queuine analogues. Their synthesis and inhibition of growth of mouse L5178Y cells in vitro” (1986).

Experiments:
[1] = target: T1, Queuine tRNA-ribosyltransferase catalytic subunit 1 (Rattus norvegicus) (UniProt Q4QR99); test: Ability to act as substrate of rat liver tRNA-Guanine Transglycosylase.
T1 sequence (whole entry): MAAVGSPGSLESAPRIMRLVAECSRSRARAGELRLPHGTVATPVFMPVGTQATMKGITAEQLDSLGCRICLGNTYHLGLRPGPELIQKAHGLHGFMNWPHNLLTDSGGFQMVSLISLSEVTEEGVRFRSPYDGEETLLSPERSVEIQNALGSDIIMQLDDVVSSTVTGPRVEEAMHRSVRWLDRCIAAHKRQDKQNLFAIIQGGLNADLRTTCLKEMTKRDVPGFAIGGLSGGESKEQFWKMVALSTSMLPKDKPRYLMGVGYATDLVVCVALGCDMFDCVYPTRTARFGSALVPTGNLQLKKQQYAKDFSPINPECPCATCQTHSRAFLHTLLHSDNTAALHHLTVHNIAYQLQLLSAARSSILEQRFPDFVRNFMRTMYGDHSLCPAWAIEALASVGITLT

L5178Y [2] = test: Inhibition of L5178Y cell growth at 10 ug/mL.
L5178Y [3] = test: Inhibition of L5178Y cell growth at 100 ug/mL.
L5178Y [4] = test: Compound was tested for inhibition of growth of L5178Y cells at concentration of 1 ug/mL; format: functional; conditions: Mus musculus

SMILES	Incorporation [1] [%]	Inhibition (L5178Y [2]) [%]	Inhibition (L5178Y [3]) [%]	inhibition at 1 µg/mL (L5178Y [4]) [%]
Nc1nc(O)c2c(CNCC(O)CO)c[nH]c2n1 (stereo unspecified)	88	<10	31	–
CCCNCc1c[nH]c2nc(N)nc(O)c12	94	<10	43	–
Nc1nc(O)c2c(CNC(=O)CI)c[nH]c2n1	0	87	89	49
N/C(=N/Cc1c[nH]c2nc(N)nc(O)c12)c1cc(I)c(O)c(I)c1	48	31	89	–
Nc1nc(O)c2c(CN3CCCCC3)c[nH]c2n1	65	<10	36	–
Nc1nc(O)c2c(CNCCOCCO)c[nH]c2n1	98	<10	9	–
CC1(C)OC2C(NCc3c[nH]c4nc(N)nc(O)c34)C=C[C@@H]2O1 (stereo partly specified)	55	<10	34	–
Nc1nc(O)c2c(CNCc3ccc(I)cc3)c[nH]c2n1	98	19	77	–
CC1(C)OC2C(NCc3c[nH]c4nc(N)nc(O)c34)C=C[C@H]2O1 (stereo partly specified)	100	<10	21	–
CC1(C)OC2C(NCc3c[nH]c4nc(N)nc(S)c34)C=C[C@@H]2O1 (stereo partly specified)	123	87	94	46
CC(C)C(=O)NCc1c[nH]c2nc(N)nc(O)c12	36	16	87	–
Nc1nc(O)c2c(CNc3cccc(O)c3)c[nH]c2n1	33	65	79	12
Nc1nc(O)c2c(CNC3C=C[C@@H](O)C3O)c[nH]c2n1 (stereo partly specified)	120	<10	23	–
Nc1nc(O)c2c(CNC3CCCC3)c[nH]c2n1	80	17	74	–
NCc1c[nH]c2nc(N)nc(S)c12	50	36	77	< 10
Nc1nc(O)c2c(n1)N=CC2CNCC(=O)O (stereo unspecified)	48	<10	20	–
Nc1nc(S)c2c(CNC3C=C[C@H](O)C3O)c[nH]c2n1 (stereo partly specified)	78	54	88	12
Nc1nc(O)c2c(CNC3C=C[C@H](O)[C@@H]3O)c[nH]c2n1 (stereo partly specified)	70	<10	53	–
Nc1nc(O)c2c(CNC3C=C[C@@H](O)[C@H]3O)c[nH]c2n1 (stereo partly specified)	100	<10	20	–
Nc1nc(O)c2c(CNc3ccccc3O)c[nH]c2n1	76	53	90	25
